Assay results: US20050175550A1, “Compositions for oral use” (priority 2000, published 2005)

System: Staphylococcus epidermidis ATCC12228
Assay: MIC by agar plate dilution method on standard strains (Example 3)
Format: cell-based
Procedure: Minimum growth-inhibiting concentrations of trifluoromethionine and other antibacterial drugs on standard strains were determined by an agar plate dilution method according to the standard method of Japanese Society of Chemotherapy.
Drug solutions at a concentration 10 times as high as the maximum applicable concentration were prepared as original solutions of test drugs given in Table 2 (as to solvents used for this purpose, reference should be made also to Table 2). Serial two-fold dilution series of the original solutions were prepared at desired stages, and 1 ml each of the diluted drug solutions was added to 9 ml of media given in Table 3 to prepare drug plates. Concentration range of the individual drugs used are as follows: trifluoromethionine: 400-0.025 μg/ml (15 stages), tetracycline: 100-0.025 μg/ml (13 stages), and clarithromycin: 100-0.025 μg/ml (13 stages).
• 1) Bacterial solutions stocked at −80° C. were inoculated on agar media (as to media used, reference should be made to Table 3), and then incubated at 37° C. overnight. When desired, subculturing was conducted once more on the same agar media (by overnight incubation at 37° C.). • 2) Colonies growing on the agar media were sampled by a platinum loop, suspended in liquid media (reference should be made to Table 3) and statically incubated at 37° C. for 18 hours (preculturing). • 3) Preculturing was continued up to McFarland 0.5 (McFarland 0.5=about 10^8 CFU/ml), and then the culture broths were diluted with Muellar Hinton Broth to make 10^6 CFU/ml. 5 μl each of the diluted solutions were inoculated on the above-mentioned drug plates by an inoculator Microplanter.
Thus, bacterial solutions at about 10^8 CFU/ml can be easily prepared by use of McFarland 0.5. Bacterial solutions at such a turbidity are commercially available, but can be easily prepared. McFarland 0.5 can be obtained by adding 0.5 ml of an aqueous 0.048 mol/l barium chloride solution to 99.5 ml of 1% v/v (0.18 mol/l) sulfuric acid. • 4) The individual bacteria were incubated at 37° C. for 18-20 hours and then the growth was determined in the same manner as in Example 2 to obtain minimum growth-inhibiting concentrations.

N[C@@H](CCSC(F)(F)F)C(=O)O [TFM, Trifluoromethionine]
MIC: >400 µg/mL
